In ChEMBL document CHEMBL1201862, “PubChem BioAssay data set” (2004):
Values joined by “and” are separate entries in the source; they are usually repeats but may differ in a detail not shown here. Equal values may be shown once.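 The compound was tested at five concentrations on cells cultured in 96-well plates, with a 48-hour exposure period. Abbreviation: GI50, concentration required for 50% inhibition of growth.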 Active and inactive are the calls of the source. Rule as the data show it: active = GI50 up to about 1.1 µM and inactive = higher.

How the values were obtained:
Experiment in all cases: NCI-60 cell line screen, 48 h
[1] = tested on: SNB-75
[2] = tested on: HOP-92
[3] = tested on: NCI-H226
[4] = tested on: Malme-3M
[5] = tested on: RPMI-8226
[6] = tested on: HCT-15
[7] = tested on: ACHN
[8] = tested on: HL-60
[9] = tested on: M14
[10] = tested on: SN12C
[11] = tested on: M19-MEL
[12] = tested on: LOX IMVI
[13] = tested on: RXF 393
[14] = tested on: OVCAR-4
[15] = tested on: HCT-116
[16] = tested on: PC-3
[17] = tested on: MDA-N
[18] = tested on: T47D
[19] = tested on: DU-145
[20] = tested on: BT-549

Row | Structure (SMILES) | GI50 [1] | GI50 [2] | GI50 [3] | GI50 [4] | GI50 [5] | GI50 [6] [µM] | GI50 [7] | GI50 [8] | GI50 [9] | GI50 [10] | GI50 [11] | GI50 [12] | GI50 [13] | GI50 [14] | GI50 [15] | GI50 [16] | GI50 [17] | GI50 [18] | GI50 [19] | GI50 [20]
1 | C=C1c2c(cc3c(c2O)c(=O)c2ccccc2n3C)OC1(C)C | 16.9 µM (inactive) | 15 µM (inactive) | 79.4 µM (inactive) | > 100 µM (inactive) | > 100 µM (inactive) | > 100 | 46.9 µM (inactive) | > 100 µM (inactive) | > 100 µM (inactive) | > 100 µM (inactive) | > 100 µM (inactive) | > 100 µM (inactive) |  |  |  |  |  |  |  | 
2 | O=C1CCCC(=O)N1CCc1c[nH]c2ccccc12 | > 100 µM (inactive) | > 100 µM (inactive) | 80.9 µM (inactive) | > 100 µM (inactive) |  |  | > 100 µM (inactive) | > 100 µM (inactive) | > 100 µM (inactive) | > 100 µM (inactive) | > 100 µM (inactive) |  | > 100 µM (inactive) | > 100 µM (inactive) | > 100 µM (inactive) |  |  |  |  | 
3 | O=C(NC(Cc1ccc(I)cc1)C(=O)O)c1ccc(I)cc1 (centres undefined) | 21.2 µM (inactive) | 66.7 µM (inactive) | > 100 µM (inactive) | 67.1 µM (inactive) | 40.3 µM (inactive) | 99.1 |  | > 62.1 µM (inactive) |  | > 100 µM (inactive) | 72.3 µM (inactive) | > 100 µM (inactive) | > 100 µM (inactive) | 51.4 µM (inactive) | 54.1 µM (inactive) |  |  |  |  | 
4 | COc1ccccc1C1C(Cl)C(=O)N1n1cnc2ccccc2c1=O (centres undefined) | 40.6 µM (inactive) |  | > 100 µM (inactive) | > 100 µM (inactive) | > 100 µM (inactive) | > 100 | > 100 µM (inactive) | > 100 µM (inactive) | > 100 µM (inactive) | > 100 µM (inactive) | > 100 µM (inactive) | > 100 µM (inactive) | > 100 µM (inactive) | > 100 µM (inactive) | > 100 µM (inactive) |  |  |  |  | 
5 | COC(=O)N/N=C(/CC1(O)C(=O)Nc2ccc([N+](=O)[O-])cc21)c1ccccc1 (centres undefined) | 23.9 µM (inactive) | 33 µM (inactive) | 40.9 µM (inactive) | 33 µM (inactive) | 44.6 µM (inactive) | > 51.2 | 33.3 µM (inactive) | 35 µM (inactive) | 34 µM (inactive) | > 74 µM (inactive) | 66.5 µM (inactive) | 18.9 µM (inactive) | 22 µM (inactive) | 47.3 µM (inactive) | 24.1 µM (inactive) | 38.8 µM (inactive) | 39.4 µM (inactive) | 48.8 µM (inactive) | > 100 µM (inactive) | 38.5 µM (inactive)
6 | COc1cc(C2C(C(=O)O)=C(COC(C)=O)Oc3cc4c(cc32)OCO4)cc(OC)c1OC (centres undefined) | 41 µM (inactive) |  |  | > 100 µM (inactive) | > 100 µM (inactive) | > 100 | > 100 µM (inactive) | > 100 µM (inactive) | > 100 µM (inactive) | > 100 µM (inactive) | > 100 µM (inactive) | > 100 µM (inactive) | > 100 µM (inactive) | > 100 µM (inactive) | > 100 µM (inactive) |  |  |  |  | 
7 | NC(=O)NNC/C(Cl)=C(\Cl)C(=O)O | < 0.01 µM (active) |  | > 50 µM (inactive) | > 100 µM (inactive) | > 100 µM (inactive) | > 100 | > 100 µM (inactive) | > 100 µM (inactive) | > 100 µM (inactive) | > 100 µM (inactive) | > 100 µM (inactive) | > 100 µM (inactive) |  | > 100 µM (inactive) | > 100 µM (inactive) |  |  |  |  | 
8 | c1c2c(cc(-n3nnc4c3CCCCCC4)c1-n1nnc3c1CCCCCC3)CCCCCC2 | 12.7 µM (inactive) | 3.28 µM (inactive) | 16 µM (inactive) |  |  | 5.19 | 5.71 µM (inactive) | 3.8 µM (inactive) | 13.7 µM (inactive) | 10.8 µM (inactive) | 8.77 µM (inactive) | 11.8 µM (inactive) | 8.07 µM (inactive) |  | 5.7 µM (inactive) |  |  |  |  | 
9 | COc1ccccc1Cc1nc(-c2ccccc2)nn(C2OC(COC(C)=O)C(OC(C)=O)C(OC(C)=O)C2OC(C)=O)c1=S (centres undefined) | 3.08 µM (inactive) | 7.31 µM (inactive) | 30.5 µM (inactive) | 5.53 µM (inactive) | 21.8 µM (inactive) | 21.5 |  | > 64.7 µM (inactive) |  | 9.35 µM (inactive) | 32.7 µM (inactive) | 11.2 µM (inactive) | 3.13 µM (inactive) | 3.31 µM (inactive) | 10.1 µM (inactive) |  |  |  |  | 
10 | COc1ccc(/C=C2\CCNC2=O)cc1 | > 47.1 µM (inactive) | > 100 µM (inactive) | > 100 µM (inactive) | > 100 µM (inactive) | > 100 µM (inactive) | > 100 |  | > 100 µM (inactive) |  | > 100 µM (inactive) | > 100 µM (inactive) | > 100 µM (inactive) |  | > 100 µM (inactive) | > 100 µM (inactive) |  |  |  |  | 
11 | COC(=O)C(C(=O)OC)C1CC(=O)c2c(Br)sc(Br)c21 (centres undefined) | 22.9 µM (inactive) | 15.4 µM (inactive) | 22 µM (inactive) | 13.4 µM (inactive) | 11.5 µM (inactive) | 9.44 | 13.7 µM (inactive) | 21.2 µM (inactive) | 18.3 µM (inactive) | 14.7 µM (inactive) |  | 12.9 µM (inactive) | 26.1 µM (inactive) | 13 µM (inactive) | 14.6 µM (inactive) | 14.2 µM (inactive) | 23.4 µM (inactive) | 28.6 µM (inactive) | 16.4 µM (inactive) | 18.4 µM (inactive)
12 | Cn1c(=O)c2c3oc(=O)cc(O)c3c(=O)n3c4ccccc4n(c1=O)c23 | 32.2 µM (inactive) | 33.2 µM (inactive) |  | 33.1 µM (inactive) | 24 µM (inactive) | 27.8 | 38 µM (inactive) | 21.1 µM (inactive) | 43.3 µM (inactive) | 34 µM (inactive) | 38.9 µM (inactive) | 15.8 µM (inactive) | 38.8 µM (inactive) | 36.5 µM (inactive) | 32.8 µM (inactive) |  |  |  |  | 
13 | O=NN1CCN=C1c1ccc([N+](=O)[O-])cc1 | > 100 µM (inactive) | > 100 µM (inactive) | > 100 µM (inactive) | > 100 µM (inactive) | > 100 µM (inactive) | > 100 | > 100 µM (inactive) | > 100 µM (inactive) | > 100 µM (inactive) | > 100 µM (inactive) | > 100 µM (inactive) | > 100 µM (inactive) | > 100 µM (inactive) | > 100 µM (inactive) | > 100 µM (inactive) |  |  |  |  | 
14 | COc1cc2c(cc1OC)/C(=C\c1ccccc1N)C(=O)OC2 | 10.3 µM (inactive) | 12.4 µM (inactive) |  | 13.9 µM (inactive) | 1.84 µM (inactive) | 7.19 | 18.3 µM (inactive) | 3.3 µM (inactive) | 19.3 µM (inactive) | 13.2 µM (inactive) | 15.2 µM (inactive) | 2.11 µM (inactive) | 3.79 µM (inactive) | 14.9 µM (inactive) |  |  |  |  |  | 
15 | Cc1cc2c(cc1C)N1Cc3c(ccc(C)c3C)N(C2)C1.Cc1cc2c(cc1C)N1Cc3cc(C)c(C)cc3N(C2)C1 | > 100 µM (inactive) |  | > 100 µM (inactive) |  | > 100 µM (inactive) |  |  | 35.2 µM (inactive) | > 100 µM (inactive) | 10 µM (inactive) | > 100 µM (inactive) | 86.7 µM (inactive) | 35.6 µM (inactive) | > 100 µM (inactive) | > 100 µM (inactive) |  |  |  |  | 
16 | CCCCCCCCC(O)c1ccc(/C=C\C(O)CCCC(=O)O)s1 (centres undefined) | > 100 µM (inactive) | > 100 µM (inactive) | > 100 µM (inactive) | > 100 µM (inactive) | > 100 µM (inactive) | > 100 | > 100 µM (inactive) | > 100 µM (inactive) | > 100 µM (inactive) | > 100 µM (inactive) | > 100 µM (inactive) | > 100 µM (inactive) | > 100 µM (inactive) | > 100 µM (inactive) | > 100 µM (inactive) |  |  |  |  | 
17 | COc1cc(NC(C)CCCN)c2ncccc2c1 (centres undefined) [PRIMAQUINE PHOSPHATE] | 47.2 µM (inactive) and 24.1 µM (inactive) |  | > 68.5 µM (inactive) and 97.9 µM (inactive) |  | 42.8 µM (inactive) and 22.6 µM (inactive) |  | 51.6 µM (inactive) and 82 µM (inactive) | 8.17 µM (inactive) and 10.4 µM (inactive) |  |  | 47.5 µM (inactive) | 43.9 µM (inactive) and 51.4 µM (inactive) |  | > 88.3 µM (inactive) |  | 33.6 µM (inactive) | 29.6 µM (inactive) | 16 µM (inactive) | 99.1 µM (inactive) | 41.1 µM (inactive)
